Test [1] concerns the target T1, Tyrosine-protein kinase BTK (Homo sapiens, UniProt Q06187). Put plainly: Inhibition of BTK (unknown origin) assessed as reduction in phosphorylation of coumarin and fluorescein-labeled FRET peptide substrate incubated for 1 hr by Z-Lyte assay.
In test [2] the target is T1, Tyrosine-protein kinase BTK. Nature of the test: Inhibition of BTK (unknown origin).

Molecules are shown by their SMILES.

T1 sequence (Q06187 whole entry): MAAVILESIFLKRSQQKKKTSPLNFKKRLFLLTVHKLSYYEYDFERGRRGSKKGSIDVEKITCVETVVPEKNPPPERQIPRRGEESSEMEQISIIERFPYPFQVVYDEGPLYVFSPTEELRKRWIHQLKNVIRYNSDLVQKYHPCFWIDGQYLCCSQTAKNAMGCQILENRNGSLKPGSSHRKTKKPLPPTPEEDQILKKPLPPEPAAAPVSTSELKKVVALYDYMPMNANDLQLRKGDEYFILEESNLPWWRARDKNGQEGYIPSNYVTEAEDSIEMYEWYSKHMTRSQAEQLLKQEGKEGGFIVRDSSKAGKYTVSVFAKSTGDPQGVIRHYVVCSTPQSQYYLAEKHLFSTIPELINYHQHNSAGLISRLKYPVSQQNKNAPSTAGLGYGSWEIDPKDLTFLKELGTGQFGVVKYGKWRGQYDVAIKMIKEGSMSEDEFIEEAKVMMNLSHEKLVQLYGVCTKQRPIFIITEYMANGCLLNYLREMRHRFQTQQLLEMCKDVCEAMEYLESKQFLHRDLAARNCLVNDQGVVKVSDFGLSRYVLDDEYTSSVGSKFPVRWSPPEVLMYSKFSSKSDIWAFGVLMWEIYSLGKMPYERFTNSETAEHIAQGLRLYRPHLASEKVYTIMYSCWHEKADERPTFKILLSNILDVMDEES

`C=CC(=O)N1CCN(c2ncnc(N)c2C(=O)c2ccc(Oc3ccccc3)cc2)CC1`: the IC50 in test [1] was found to be 880 nM.

Regarding `C=CC(=O)N1CCC(Nc2ncnc(N)c2C(=O)c2ccc(Oc3ccccc3)cc2)CC1`, the IC50 in test [1] was 1070 nM.

`C=CC(=O)N1CCC[C@@H](n2c(=O)n(-c3ccc(Oc4ccccc4)cc3)c3c(N)ncnc32)C1` came in with a 50% inhibitory concentration (IC50) in test [2] of 23.9 nM.

For `C=CC(=O)N1CCN(c2ncnc(N)c2C(=O)c2ccc(OCC)cc2)CC1`, the concentration for half-maximal inhibition (IC50) in test [1] amounted to 1320 nM.

On to `C=CC(=O)N1CCC[C@@H](Nc2ncnc(N)c2C(=O)c2ccc(OCC)cc2)C1`, for which, in test [1], the half-maximal inhibitory concentration (IC50) worked out at 1800 nM.

On to `C=CC(=O)N1CCC[C@@H](Nc2ncnc(N)c2C(=O)c2ccc(Oc3ccccc3)cc2)C1`, for which the half-inhibitory concentration (IC50) in test [1] worked out at 70 nM.

`C=CC(=O)Nc1cccc(Oc2nc(Nc3ccc(N4CCN(C)CC4)cc3)nc3ccsc23)c1` [OLMUTINIB]: in test [2], the half-maximal inhibitory concentration (IC50) is 1 nM.

As usually defined, the IC50 is the concentration at which inhibition is half-maximal.

The values above are taken from ChEMBL document CHEMBL3808322, “Structure-based discovery of novel 4,5,6-trisubstituted pyrimidines as potent covalent Bruton's tyrosine kinase inhibitors” (Bioorg Med Chem Lett, 2016).
